Molecular target: α7 nAChR subtype (Rattus norvegicus, UniProt Q05941)
Assay type: binding
Settings: read-out: KD of radioligand (saturation curves, one site model)

α7 nAChR subtype, sequence (Q05941 23-502 limits assumed): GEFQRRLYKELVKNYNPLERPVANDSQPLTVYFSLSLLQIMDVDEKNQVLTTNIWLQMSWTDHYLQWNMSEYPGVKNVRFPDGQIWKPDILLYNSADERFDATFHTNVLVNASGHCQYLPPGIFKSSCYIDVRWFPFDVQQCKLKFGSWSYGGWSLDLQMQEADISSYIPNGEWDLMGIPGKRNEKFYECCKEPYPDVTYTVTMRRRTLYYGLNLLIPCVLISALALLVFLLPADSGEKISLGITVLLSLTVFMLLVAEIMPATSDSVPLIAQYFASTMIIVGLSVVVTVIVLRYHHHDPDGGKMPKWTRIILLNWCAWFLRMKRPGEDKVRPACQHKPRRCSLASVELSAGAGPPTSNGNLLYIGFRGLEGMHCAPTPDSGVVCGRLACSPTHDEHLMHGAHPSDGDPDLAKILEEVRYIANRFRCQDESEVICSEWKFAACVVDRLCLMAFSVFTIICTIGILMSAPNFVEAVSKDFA

## [^125I]-α-Bungarotoxin [[^125I]-α-BTX]
  Kd: 1.67 nM

Source: US7186836B2 (priority 2002, dated 2007)
